# Measured values published in article PMC5389830, “Longitudinal monitoring of Gaussia and Nano luciferase activities to concurrently assess ER calcium homeostasis and ER stress in vivo” (PLoS ONE, 2017).
# Target: T1, GLuc (Gaussia luciferase) (Gaussia princeps (in: crustaceans), UniProt Q9BLZ2)
# T1 construct: secreted GLuc without SERCaMP peptide, in culture medium of transfected SH-SY5Y cells
# T1 sequence (Q9BLZ2 18-185): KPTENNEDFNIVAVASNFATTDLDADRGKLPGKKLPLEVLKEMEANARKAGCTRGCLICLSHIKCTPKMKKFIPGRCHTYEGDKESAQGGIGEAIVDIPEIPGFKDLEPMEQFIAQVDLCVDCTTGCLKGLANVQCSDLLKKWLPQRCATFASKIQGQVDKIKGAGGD
# Assay: luminescence, culture medium of transfected SH-SY5Y cells
# Assay type: biochemical
# Conditions: 8 μM coelenterazine; flash kinetics
compound,measurement,value
Oc1ccc(Cc2nc3c(Cc4ccccc4)nc(-c4ccc(O)cc4)cn3c2O)cc1 [coelenterazine],"luminescence, culture medium of transfected SH-SY5Y cells","GLuc and secNLuc both showed activity towards CTZ, with GLuc exhibiting flash kinetics"
